Results as given in patent publication US6723331B1, “Termite-controlling agent and a controlling method thereof” (Sumitomo Chemical Company, Limited, priority 1992, dated 2004).
Read-outs that look alike come from different tables or passages of the source.

System: Formosan subterranean termites (Coptotermes formosanus)
Experiment: whole plant or invertebrate
Details: soil, 72 h
Method: The emulsifiable concentrates obtained in Formulation Examples 1, 2 and 3 were each diluted with distilled water to a predetermined concentration. Five milliliters of every dilute chemicals solution was added to 100 g of sandy loam previously heat-sterilized, and the mixture was thoroughly mixed to prepare a test soil. This test soil was stored at 40° C. under a dark condition. After storage for a predetermined period of time (2 months and 3 months), about 15 g of the test soil was put in a plastic dish (diameter, 9 cm; height, 2 cm) and wetted. Twenty workers of Formosan subterranean termites (Coptotermes formosanus) were liberated in the plastic dish. After the dish was kept at room temperature for 3 days, the condition of the termites was observed.
For comparison, the same test was also carried out using each of fenvalerate and MGK 264.
The same test as in Test Example 1 was carried out using the emulsifiable concentrates obtained in Formulation Examples 6 and 7.
For comparison, the same test was also carried out using each of permethrin and MGK 264.

[1] = read-out: Mortality (%) after 3 days

CC(C)C(C(=O)OC(C#N)c1cccc(Oc2ccccc2)c1)c1ccc(Cl)cc1 (stereo not drawn) [Fenvalerate, α-cyano-3-phenoxy-benzyl-2-(4-chlorophenyl)-3-methylbutyrate]
mortality at 125 ppm (read-out: Mortality (%) after 3 days, 125 ppm, treated soil stored 2 months at 40° C., Table 1): 0% | mortality at 125 ppm (read-out: Mortality (%) after 3 days, 125 ppm, treated soil stored 3 months at 40° C., Table 1): 0% | mortality at 250 ppm (read-out: Mortality (%) after 3 days, 250 ppm, treated soil stored 2 months at 40° C., Table 1): 0% | mortality at 250 ppm (read-out: Mortality (%) after 3 days, 250 ppm, treated soil stored 3 months at 40° C., Table 1): 0%

CCCCC(CC)CN1C(=O)C2C3C=CC(C3)C2C1=O (centres unmarked) [MGK 264, N-(2-ethylhexyl)bicyclo[2.2.1]hept-5-en-2,3-dicarboximide]
mortality at 500 ppm [1]: 0% | mortality at 1000 ppm [1]: 0%

CC1(C)C(C=C(Cl)Cl)C1C(=O)OCc1cccc(Oc2ccccc2)c1 (centres unmarked) [Permethrin, 3-phenoxybenzyl 3-(2,2-dichlorovinyl)-2,2-dimethylcyclopropanecarboxylate]
mortality at 125 ppm (read-out: Mortality (%) after 3 days, 125 ppm, treated soil stored 2 months at 40° C., Table 2): 80% | mortality at 125 ppm (read-out: Mortality (%) after 3 days, 125 ppm, treated soil stored 3 months at 40° C., Table 2): 30%
